Experimental data published in patent US12410208B2, “(2-acetamidyl)thio-beta-D-galactopyranoside derivatives” (Idorsia Pharmaceuticals Ltd, priority 2020, dated 2025).
pIC50: −log10 of the molar value. Read-outs that look alike come from different tables or passages of the source.

What was measured:
[1] = target: biotinylated human Gal-3 (hGal-3) (Homo sapiens, UniProt P17931); experiment: Competitive binding assay: biotinylated hGal-3 binding to microplate-adsorbed asialofetuin (ASF), spectrophotometric
Outline: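 Competitive binding of biotinylated hGal-3 to plate-adsorbed asialofetuin was measured with serially diluted compounds over 3 h at 4° C. Bound protein was detected with streptavidin-peroxidase and ABTS substrate by absorbance. IC50 values are means of several measurements.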

human Gal-1 (hGal-1) = human Gal-1 (hGal-1) (Homo sapiens, UniProt P09382); experiment: Competitive binding assay: biotinylated hGal-1 binding to microplate-adsorbed asialofetuin (ASF), spectrophotometric; conditions: hGal-1 binding to asialofetuin; Table 15; R and S epimers of selected Examples also listed; read-out: IC50 (Galectin-1 inhibition)
Outline: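 Biotinylated hGal-1 (300-1000 ng/mL) incubated with compound on asialofetuin-coated plates 3 hours at 4 °C, washed, then streptavidin-peroxidase (80 ng/mL) 1 hour at 4 °C. ABTS substrate read spectrophotometrically; IC50 reported as mean of several measurements.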

[2] = Gal-3 inhibition, Table 1 (Reference Examples), read-out: IC50
[3] = Gal-3 inhibition, Table 7, read-out: IC50
[4] = Table 13, hGal-3, read-out: IC50 (Gal-3 inhibition)

Sequence of human Gal-1 (hGal-1) (P09382 whole entry): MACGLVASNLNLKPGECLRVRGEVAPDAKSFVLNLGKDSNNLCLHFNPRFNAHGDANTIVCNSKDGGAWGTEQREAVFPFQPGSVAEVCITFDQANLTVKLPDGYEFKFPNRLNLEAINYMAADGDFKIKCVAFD
Sequence of biotinylated human Gal-3 (hGal-3) (P17931 whole entry): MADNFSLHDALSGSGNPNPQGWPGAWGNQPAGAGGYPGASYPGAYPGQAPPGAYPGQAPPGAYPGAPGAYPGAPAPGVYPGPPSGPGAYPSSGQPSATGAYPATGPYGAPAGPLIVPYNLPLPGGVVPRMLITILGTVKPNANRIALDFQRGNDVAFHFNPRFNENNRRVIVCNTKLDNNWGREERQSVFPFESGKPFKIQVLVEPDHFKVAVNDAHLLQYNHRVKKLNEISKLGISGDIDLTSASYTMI

SMILES | pIC50 ([1]; Table 8, hGal-3, read-out: IC50 (Gal-3 inhibition)) | pIC50 (human Gal-1 (hGal-1)) | pIC50 [1, 2] | pIC50 [1, 3] | pIC50 [1, 4]
CCN(C)C(=O)[C@@H](S[C@@H]1O[C@H](CO)[C@H](O)[C@H](n2cc(-c3cc(F)c(F)c(F)c3)nn2)[C@H]1O)C1(O)CCN(S(=O)(=O)C2CC2)CC1 [Example 2.51.203S., (S)-2-(1-(Cyclopropylsulfonyl)-4-hydroxypiperidin-4-yl)-2-(((2S,3R,4S,5R,6R)-3,5-dihydroxy-6-(hydroxymethyl)-4-(4-(3,4,5-trifluorophenyl)-1H-1,2,3-triazol-1-yl)tetrahydro-2H-pyran-2-yl)thio)-N-ethyl-N-methylacetamide [1,3-di-deoxy-1-((2-(1-(cyclopropylsulfonyl)-4-hydroxypiperidin-4-yl)-N-ethyl-N-methylacetamide)-(S)-thio)-3-[4-(3,4,5-trifluorophenyl)-1H-1,2,3-triazol-1-yl]-β-D-galactopyranoside]] | 7.70 | 7.52 | – | – | –
CCN(C)C(=O)C(S[C@@H]1O[C@H](CO)[C@H](O)[C@H](n2cc(-c3cc(F)c(F)c(F)c3)nn2)[C@H]1O)C(C)C (stereo partly drawn) [Example 2.53.203., 2-(((2S,3R,4S,5R,6R)-3,5-dihydroxy-6-(hydroxymethyl)-4-(4-(3,4,5-trifluorophenyl)-1H-1,2,3-triazol-1-yl)tetrahydro-2H-pyran-2-yl)thio)-N-ethyl-N,3-dimethylbutanamide, reference compound] | – | 4.44 | 5.11 | – | –
CCN(C)C(=O)[C@@H](S[C@@H]1O[C@H](CO)[C@H](O)[C@H](n2cc(-c3cc(F)c(F)c(F)c3)nn2)[C@H]1O)C1CCOCC1 [Example 2.56.203S., (S)-2-(((2S,3R,4S,5R,6R)-3,5-dihydroxy-6-(hydroxymethyl)-4-(4-(3,4,5-trifluorophenyl)-1H-1,2,3-triazol-1-yl)tetrahydro-2H-pyran-2-yl)thio)-N-ethyl-N-methyl-2-(tetrahydro-2H-pyran-4-yl)acetamide, reference compound] | – | 4.44 | 5.16 | – | –
CCC(O)C(S[C@@H]1O[C@H](CO)[C@H](O)[C@H](n2cc(-c3cc(F)c(F)c(F)c3)nn2)[C@H]1O)C(=O)N(C)CC (stereo partly drawn) [Example 2.60.203., 2-(((2S,3R,4S,5R,6R)-3,5-Dihydroxy-6-(hydroxymethyl)-4-(4-(3,4,5-trifluorophenyl)-1H-1,2,3-triazol-1-yl)tetrahydro-2H-pyran-2-yl)thio)-N-ethyl-3-hydroxy-N-methylpentanamide] | – | 5.99 | – | 6.77 | –
CCC(O)C(S[C@@H]1O[C@H](CO)[C@H](O)[C@H](n2cc(-c3cc(F)c(F)c(F)c3)nn2)[C@H]1O)C(=O)N1CCC1 (stereo partly drawn) [Example 2.60.206., 1-(Azetidin-1-yl)-2-(((2S,3R,4S,5R,6R)-3,5-dihydroxy-6-(hydroxymethyl)-4-(4-(3,4,5-trifluorophenyl)-1H-1,2,3-triazol-1-yl)tetrahydro-2H-pyran-2-yl)thio)-3-hydroxypentan-1-one] | – | 5.47 | – | 6.30 | –
O=C(C(S[C@@H]1O[C@H](CO)[C@H](O)[C@H](n2cc(-c3cc(F)c(F)c(F)c3)nn2)[C@H]1O)C(O)Cc1ccccc1)N1CCC1 (stereo partly drawn) [Example 2.64.206., 1-(Azetidin-1-yl)-2-(((2S,3R,4S,5R,6R)-3,5-dihydroxy-6-(hydroxymethyl)-4-(4-(3,4,5-trifluorophenyl)-1H-1,2,3-triazol-1-yl)tetrahydro-2H-pyran-2-yl)thio)-3-hydroxy-4-phenylbutan-1-one] | – | 5.23 | – | 6.15 | –
CN(CC1CC1)C(=O)C(S[C@@H]1O[C@H](CO)[C@H](O)[C@H](n2cc(-c3cc(F)c(F)c(F)c3)nn2)[C@H]1O)C(O)Cc1ccccc1 (stereo partly drawn) [Example 2.64.218., N-(Cyclopropylmethyl)-2-(((2S,3R,4S,5R,6R)-3,5-dihydroxy-6-(hydroxymethyl)-4-(4-(3,4,5-trifluorophenyl)-1H-1,2,3-triazol-1-yl)tetrahydro-2H-pyran-2-yl)thio)-3-hydroxy-N-methyl-4-phenylbutanamide] | – | 6.47 | – | 6.96 | –
CCN(C)C(=O)C(S[C@@H]1O[C@H](CO)[C@H](O)[C@H](n2cc(-c3cc(F)c(F)c(F)c3)nn2)[C@H]1O)C(O)c1ccn(C)n1 (stereo partly drawn) [Example 2.65.203., 2-(((2S,3R,4S,5R,6R)-3,5-dihydroxy-6-(hydroxymethyl)-4-(4-(3,4,5-trifluorophenyl)-1H-1,2,3-triazol-1-yl)tetrahydro-2H-pyran-2-yl)thio)-N-ethyl-3-hydroxy-N-methyl-3-(1-methyl-1H-pyrazol-3-yl)propanamide] | – | 5.52 | – | 6.19 | –
Cn1ccc(C(O)C(S[C@@H]2O[C@H](CO)[C@H](O)[C@H](n3cc(-c4cc(F)c(F)c(F)c4)nn3)[C@H]2O)C(=O)N2CCC2)n1 (stereo partly drawn) [Example 2.65.206., 1-(Azetidin-1-yl)-2-(((2S,3R,4S,5R,6R)-3,5-dihydroxy-6-(hydroxymethyl)-4-(4-(3,4,5-trifluorophenyl)-1H-1,2,3-triazol-1-yl)tetrahydro-2H-pyran-2-yl)thio)-3-hydroxy-3-(1-methyl-1H-pyrazol-3-yl)propan-1-one] | – | 5.14 | – | 5.98 | –
CN(CC1CC1)C(=O)C(S[C@@H]1O[C@H](CO)[C@H](O)[C@H](n2cc(-c3cc(F)c(F)c(F)c3)nn2)[C@H]1O)C(O)c1ccn(C)n1 (stereo partly drawn) [Example 2.65.218., N-(cyclopropylmethyl)-2-(((2S,3R,4S,5R,6R)-3,5-dihydroxy-6-(hydroxymethyl)-4-(4-(3,4,5-trifluorophenyl)-1H-1,2,3-triazol-1-yl)tetrahydro-2H-pyran-2-yl)thio)-3-hydroxy-N-methyl-3-(1-methyl-1H-pyrazol-3-yl)propanamide] | – | 5.51 | – | 6.16 | –
CO[C@@H]1[C@@H](n2cc(-c3cc(F)c(F)c(F)c3)nn2)[C@@H](O)[C@@H](CO)O[C@H]1SC(C(=O)N1CCC(F)(F)CC1)C1(O)CCC2(CC2)CC1 (stereo partly drawn) [Example 2.67.226.1., 1-(4,4-Difluoropiperidin-1-yl)-2-(((2S,3R,4S,5R,6R)-5-hydroxy-6-(hydroxymethyl)-3-methoxy-4-(4-(3,4,5-trifluorophenyl)-1H-1,2,3-triazol-1-yl)tetrahydro-2H-pyran-2-yl)thio)-2-(6-hydroxyspiro[2.5]octan-6-yl)ethan-1-one] | – | 6.77 | – | – | 6.92
CO[C@@H]1[C@@H](n2cc(-c3cc(F)c(F)c(F)c3)nn2)[C@@H](O)[C@@H](CO)O[C@H]1SC(C(=O)N1CCC(F)(F)CC1)C1(O)CCC(C)(C)CC1 (stereo partly drawn) [Example 2.68.226.I., 1-(4,4-Difluoropiperidin-1-yl)-2-(1-hydroxy-4,4-dimethylcyclohexyl)-2-(((2S,3R,4S,5R,6R)-5-hydroxy-6-(hydroxymethyl)-3-methoxy-4-(4-(3,4,5-trifluorophenyl)-1H-1,2,3-triazol-1-yl)tetrahydro-2H-pyran-2-yl)thio)ethan-1-one] | – | 6.72 | – | – | 7.00
CO[C@@H]1[C@@H](n2cc(-c3cc(F)c(F)c(F)c3)nn2)[C@@H](O)[C@@H](CO)O[C@H]1S[C@@H](C(=O)N1CCC(F)(F)CC1)C1(O)CCC2(CCC2)CC1 [Example 2.69.226R.I., (R)-1-(4,4-Difluoropiperidin-1-yl)-2-(((2S,3R,4S,5R,6R)-5-hydroxy-6-(hydroxymethyl)-3-methoxy-4-(4-(3,4,5-trifluorophenyl)-1H-1,2,3-triazol-1-yl)tetrahydro-2H-pyran-2-yl)thio)-2-(7-hydroxyspiro[3.5]nonan-7-yl)ethan-1-one] | – | 5.79 | – | – | 6.24
